# Source: paper PMC9099682 (2022)
# Assays:
# [1] = test system: Pu22 (DNA, G4) TGAGGGTGGGTAGGGTGGGTAA; test: CD spectroscopy; conditions: K+ 4.5 mM, Na+ (137 mM NaCl, 10 mM Na2HPO4); PBS pH 7.4, 40 °C; 125 µM tPD, 2.5 µM DNA; CD band increase at 263 nm
# [2] = test system: Pu22 (DNA, G4) TGAGGGTGGGTAGGGTGGGTAA; test: CD melting at 265 nm; conditions: K+ 4.5 mM, Na+ (137 mM NaCl, 10 mM Na2HPO4); PBS pH 7.4; 125 µM tPD, 2.5 µM DNA (50 equiv.); Tm 62 to 64 °C
compound,measurement,setting,value
OC[C@H]1O[C@@H](Oc2cc(O)cc(/C=C/c3ccc(O)cc3)c2)[C@H](O)[C@@H](O)[C@@H]1O,binding,[1],yes
same,ΔTm,[2],+2 °C
